System: hiRPCp2
Experiment: Differentiation ability of hiRPCp2 expanded in K+ medium (qRT-PCR of CRX and BRN3A)
Format: cell-based, human
Conditions: Diff-2, late forced differentiation in ProB27 medium supplemented by DAPT, D10, qRT-PCR of CRX
Description: Total RNAs were extracted using Nucleospin RNA II kit (Macherey-Nagel) according to the manufacturer's protocol, and RNA yields and quality were checked with a NanoDrop spectrophotometer (Thermo Fisher Scientific). cDNA were synthesized from 250 ng of mRNA using the QuantiTect reverse transcription kit (Qiagen) following manufacturer's recommendations. Synthesized cDNA were then diluted at 1/20 in DNase-free water before performing quantitative PCR. qPCR analysis was performed on an Applied Biosystems real-time PCR machine (7500 Fast System) with custom TaqMan® Array 96-Well Fast plates and TaqMan® Gene expression Master Mix (Thermo Fisher Scientific) following manufacturer's instructions. All primers and MGB probes labeled with FAM for amplification were purchased from Thermo Fischer Scientific as described in Reichman et al., 2017 [2], ASCL1 (Assay ID Hs04187546_g1). Results were normalized against 18S and quantification of gene expression was based on the DeltaCt Method.
We tested the ability of the hiRPCs expanded after two passages (hiRPCp2) in K+ medium to be differentiated in retinal neurons. Three different culture conditions were tested: 1—By a spontaneous differentiation in ProB27 medium, a control condition. 2—By an “early forced” differentiation using ProB27 medium supplemented by DAPT, a Notch pathway inhibitor, directly after K+ medium condition at D3 (Diff 1). […]

For `C[C@H](NC(=O)Cc1cc(F)cc(F)c1)C(=O)N[C@H](C(=O)OC(C)(C)C)c1ccccc1` [DAPT], the “differentiation of hiRPCp2” value was “favors the hiRPCs differentiation in photoreceptor precursors”.
